Experimental findings from BindingDB's records for doi:10.1021/jm400938g (State Key Laboratory of Bioreactor Engineering, 2013) are described below.

Assay [1] concerns the target T1, Dihydroorotate dehydrogenase (quinone), mitochondrial (Plasmodium falciparum, UniProt Q54A96).
T1 sequence (Q54A96 whole entry): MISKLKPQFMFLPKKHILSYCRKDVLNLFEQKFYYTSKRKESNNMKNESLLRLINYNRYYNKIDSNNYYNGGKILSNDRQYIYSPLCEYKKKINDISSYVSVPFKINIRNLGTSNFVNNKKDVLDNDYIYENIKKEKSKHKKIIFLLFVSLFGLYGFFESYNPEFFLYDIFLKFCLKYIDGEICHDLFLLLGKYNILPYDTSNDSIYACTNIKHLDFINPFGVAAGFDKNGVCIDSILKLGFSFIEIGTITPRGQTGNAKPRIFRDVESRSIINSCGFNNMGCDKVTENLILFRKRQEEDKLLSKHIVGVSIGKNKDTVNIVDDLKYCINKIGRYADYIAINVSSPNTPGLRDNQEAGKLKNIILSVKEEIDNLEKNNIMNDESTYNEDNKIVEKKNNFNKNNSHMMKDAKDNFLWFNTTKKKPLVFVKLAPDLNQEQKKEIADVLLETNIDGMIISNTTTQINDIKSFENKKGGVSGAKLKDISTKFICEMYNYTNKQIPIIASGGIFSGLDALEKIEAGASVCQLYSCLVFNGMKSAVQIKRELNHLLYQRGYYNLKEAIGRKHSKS
Description: Inhibition of Plasmodium falciparum DHODH (Phe158 to Ser569) expressed in Escherichia coli BL21 using dihydroorotate as substrate measured every 30 secs for 6 mins by DCIP dye-based assay.

The target in assay [2] is Dihydroorotate dehydrogenase (quinone), mitochondrial (Homo sapiens, UniProt Q02127). The experiment in a line: Inhibition of N-terminal His10-tagged human DHODH (Met30 to Arg396) expressed in Escherichia coli BL21 (DE3) using dihydroorotate as substrate measured every 30 secs for 6 mins by DCIP dye-based assay.
Dihydroorotate dehydrogenase (quinone), mitochondrial (Homo sapiens, UniProt Q02127), sequence (Q02127 whole entry): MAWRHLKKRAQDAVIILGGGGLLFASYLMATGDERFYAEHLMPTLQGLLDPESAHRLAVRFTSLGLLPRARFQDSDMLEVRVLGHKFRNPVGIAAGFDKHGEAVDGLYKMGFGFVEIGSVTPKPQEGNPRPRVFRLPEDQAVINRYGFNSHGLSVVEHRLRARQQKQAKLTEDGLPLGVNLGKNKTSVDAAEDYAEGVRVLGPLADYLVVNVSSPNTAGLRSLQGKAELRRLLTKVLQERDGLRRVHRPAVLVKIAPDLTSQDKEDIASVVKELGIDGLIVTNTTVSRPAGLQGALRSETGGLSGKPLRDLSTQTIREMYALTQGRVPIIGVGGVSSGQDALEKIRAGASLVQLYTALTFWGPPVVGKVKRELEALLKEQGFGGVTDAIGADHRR

Turning to `CCOC(=O)c1c(O)csc1Nc1ccccc1`, the IC50 in assay [1] and in assay [2] was greater than 50 µM throughout.
`CCCNC(=O)c1c(O)csc1Nc1ccc2ccccc2c1`: the IC50 in assay [1] and in assay [2] was greater than 50 µM in each case.
Consider `O=C(NCC1CC1)c1c(O)csc1Nc1ccc2ccccc2c1`, for which the IC50 in assay [1] and in assay [2] was greater than 50 µM throughout.
As for `CCCCNC(=O)c1c(O)csc1Nc1ccc2ccccc2c1`, the IC50 in assay [1] and in assay [2] was greater than 50 µM throughout.
As for `CCOC(=O)c1c(O)csc1Nc1ccc(Br)cc1C`, the IC50 in assay [1] and in assay [2] was greater than 50 µM throughout.
`CCOC(=O)c1c(O)csc1Nc1cccc(C(F)(F)F)c1`: the IC50 in assay [1] and in assay [2] was greater than 50 µM in each case.
As for `Cc1ccc(Nc2scc(O)c2C(=O)O)cc1C`, the IC50 in assay [1] and in assay [2] was greater than 50 µM in each case.
Regarding `Cc1ccc(Nc2scc(O)c2C(N)=O)cc1C`, the IC50 in assay [1] and in assay [2] was greater than 50 µM in each case.

The IC50 is the concentration needed to halve the response being measured. Low values mean greater potency in that assay, high ones weaker potency in that assay.
